Laboratory results taken from ChEMBL document CHEMBL4825739, “Cannabinoid Receptor Agonists for the Potential Treatment of Pain, Neurological Disorders, Fibrotic Diseases, Obesity, and Many More” (ACS Med Chem Lett, 2021).

Tests used:
Format in all cases: functional, cell-based
[1] = target: T1, Cannabinoid receptor 2 (Homo sapiens, UniProt P34972); test: Agonist activity at human CB2 receptor expressed in CHO-K1 cells assessed as maximum efficacy incubated for 20 mins measured after 60 mins addition of cAMP detect reagent by HTRF analysis relative to control; details: filed as agonist, time 80.0 min
T1 sequence (P34972 whole entry): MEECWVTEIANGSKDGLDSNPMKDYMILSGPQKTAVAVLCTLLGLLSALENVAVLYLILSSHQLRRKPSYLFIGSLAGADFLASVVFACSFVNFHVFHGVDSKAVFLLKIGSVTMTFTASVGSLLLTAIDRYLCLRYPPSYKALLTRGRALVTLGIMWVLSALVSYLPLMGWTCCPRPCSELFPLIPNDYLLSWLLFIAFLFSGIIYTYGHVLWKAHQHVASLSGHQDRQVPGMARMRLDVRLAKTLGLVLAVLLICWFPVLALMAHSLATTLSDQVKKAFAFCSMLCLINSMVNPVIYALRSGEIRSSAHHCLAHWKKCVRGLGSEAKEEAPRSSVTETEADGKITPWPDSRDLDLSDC

[2] = target: T2, Cannabinoid receptor 1 (Homo sapiens, UniProt P21554); test: Agonist activity at human CB1 receptor expressed in CHO-K1 cells assessed as maximum efficacy incubated for 20 mins measured after 60 mins addition of cAMP detect reagent by HTRF analysis relative to control; details: filed as agonist
T2 sequence (P21554 whole entry): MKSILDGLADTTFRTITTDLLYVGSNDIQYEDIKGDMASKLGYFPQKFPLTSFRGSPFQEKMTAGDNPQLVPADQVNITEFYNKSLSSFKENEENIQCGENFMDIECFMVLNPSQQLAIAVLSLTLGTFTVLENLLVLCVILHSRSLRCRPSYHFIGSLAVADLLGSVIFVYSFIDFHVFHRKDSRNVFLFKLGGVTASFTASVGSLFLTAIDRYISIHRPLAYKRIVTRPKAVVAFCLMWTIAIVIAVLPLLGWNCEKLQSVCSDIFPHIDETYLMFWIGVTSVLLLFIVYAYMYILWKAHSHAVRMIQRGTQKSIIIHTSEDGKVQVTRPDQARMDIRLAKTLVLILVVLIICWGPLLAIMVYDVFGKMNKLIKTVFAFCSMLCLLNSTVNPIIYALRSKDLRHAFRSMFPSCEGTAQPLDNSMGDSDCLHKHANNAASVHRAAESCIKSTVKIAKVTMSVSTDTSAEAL

[3] = target: T2, Cannabinoid receptor 1; test: Agonist activity at human CB1 receptor expressed in CHO-K1 cells assessed as […] incubated for 20 mins measured after 60 mins addition of cAMP detect reagent by HTRF analysis
[4] = target: T1, Cannabinoid receptor 2; test: Agonist activity at human CB2 receptor expressed in CHO-K1 cells assessed as […] incubated for 20 mins measured after 60 mins addition of cAMP detect reagent by HTRF analysis

Row | Compound | Emax [1] | Emax [2] | EC50 [3] | EC50 [4]
1 | O=C(NC12CC3CC(CC1C3)C2)c1nn(-c2cnccn2)c2c1CC1CCC2O1 (stereo not given) | 111% | 100% | 0.02 nM | 16.6 nM
2 | CC(C)(C)c1nnc(-c2nn(-c3c[n+]([O-])ccn3)c3c2CC2CCC3O2)s1 (stereo not given) | 94.9% | 99% | 0.06 nM | 130 nM
3 | CC(C)(C)NC(=O)c1c2c(nn1-c1ccc(F)cc1F)C1CCC(C2)O1 (stereo not given) | < 50% | 72.8% | 2980 nM | 
4 | CC(C)(C)NC(=O)c1nn(-c2ccc(F)cc2F)c2c1CC1CCC2O1 (stereo not given) | 99% | 95.6% | 1.2 nM | 108 nM
5 | CC(C)(C)[C@@H](CO)NC(=O)c1nn(-c2cnccn2)c2c1C[C@H]1CCC2O1 (single isomer, unassigned) | 111% | 100% | 0.09 nM | 422 nM
6 | O=C(NC12CC(C1)C2)c1nn(-c2c[n+]([O-])ccn2)c2c1CC1CCC2O1 (stereo not given) | 91% | 100% | 0.05 nM | 1780 nM
7 | O=C(NC12CC3CC(CC1C3)C2)c1nn(-c2ccc(F)cc2F)c2c1CC1CCC2O1 (stereo not given) | 98% | 99.1% | 0.08 nM | 0.7 nM
8 | CC(C)(C)NC(=O)c1c2c(nn1-c1c[n+]([O-])ccn1)CC1CCC2O1 (stereo not given) | < 50% | 80.3% | 2670 nM | 
9 | O=C(NC1(C(F)(F)F)CCC1)c1nn(-c2cnccn2)c2c1CC1CCC2O1 (stereo not given) | 90.3% | 100% | 0.04 nM | 571 nM
10 | O=C(NC12CCC(CC1)CC2)c1nn(-c2c[n+]([O-])ccn2)c2c1CC1CCC2O1 (stereo not given) | 96.5% | 99.7% | 0.02 nM | 48.5 nM
11 | CC(C)(C)[C@@H](CO)NC(=O)c1nn(-c2cnccn2)c2c1C[C@@H]1CC[C@H]2O1 | < 50% | 100% | 0.56 nM | 
12 | CC(C)(C)NC(=O)c1c2c(nn1-c1c[n+]([O-])ccn1)C1CCC(C2)O1 (stereo not given) | < 50% | 66.3% | 7970 nM | 
13 | CCC(C)(C)c1noc(-c2nn(-c3cnccn3)c3c2CC2CCC3O2)n1 (stereo not given) | < 50% | 99.8% | 0.04 nM | 
14 | CC(C)(C)NC(=O)c1c2c(nn1-c1cnccn1)CC1CCC2O1 (stereo not given) | < 50% | 85.8% | 1650 nM | 
